Measured values published in patent US20140187570A1, “NOVEL FORMULATIONS OF PYRIMETHANIL, AND THEIR USE IN TREATMENT OF CROPS” (XEDA INTERNATIONAL, priority 2011, published 2014).

Key:
Geotrichum candidum = experiment: Fungicidal activity on treated oranges (Example 5); assay type: in vivo; details: oranges treated with pyrimethanil alone
Protocol: Oranges are separated into three lots, and are treated as follows: • Lot 1 (control): oranges not treated; • Lot 2: oranges treated with pyrimethanil alone; • Lot 3: oranges treated with 250 g of the formulation according to Example 2 diluted in one hectolitre of water.

[1] = system: Monilinia fructicola strain resistant to pyrimethanil; experiment: In vitro growth inhibition of the halo on PDA Petri dishes, resistant strain; assay type: cell-based; details: dose 250 ml/hl
Protocol: The object of the study was to determine the efficacy of combinations according to the invention against the phytopathogenic fungus Monilinia fructicola, compared to pyrimethanil alone.
The efficacy of the combinations against Monilinia fructicola was determined by determining the inhibition of growth of the halo in accordance with various general methods (ISO 6887: 2003; ISO 7218: 2007; ISO 7954: 1987).
The samples were added to the artificial medium and were mixed gently prior to the solidification of the agar solution.
A small quantity of fungal spores was placed at the centre of the potato dextrose agar (PDA) in Petri dishes at 25±1° C. for 5-6 days. At the end of the incubation, the inhibition of the halo formed was measured, compared with untreated PDA Petri dishes (control).
The results are expressed as the percentage of incidence of the infestation, and the percentage of efficacy of the product tested.
Monilinia fructicola—Strain Resistant to Pyrimethanil: […]

Cc1cc(C)nc(Nc2ccccc2)n1 [pyrimethanil alone, 2-anilino-4,6-dimethylpyrimidine]
level of Geotrichum candidum compared with control lot (Geotrichum candidum): same level of Geotrichum candidum as the control lot
Efficacy (%) [1]: 45%
